Data reported in patent EP0432983A2 (priority 1989, dated 1991).
≈ marks a conversion by molar mass, not a printed value.

What was measured:
[1] = system: BHK (Hamster kidney fibroblast); assay: Cytotoxicity assay, BHK; format: cell-based
Protocol: (§1) With compounds AH-3, AH-4 and AH-5, four general anti-tumour assays and two cytotoxicity assays were performed. Current screening protocols were employed using test substance diluted as above and at varying concentrations. Tests were performed against the tumour cells P-388 (mouse DBA/2 lymphoid neoplasm), A-549 (human lung carcinoma), HT-29 (human colon carcinoma) and MCF-7 (human breast carcinoma) and for the cytotoxicity assays against CV-1 (monkey kidney fibroblast) and BHK (Hamster kidney fibroblast).
(§2) Scoring is performed as follows: (-) no activity - the number of cells is equal to the control of growth, 0-40% cell inhibition (+) low activity - numbers of cells are reduced by approx 50-60% (++) good activity - numbers of cells are reduced by approx 70-90% (+++) very good activity - there is 100% cell inhibition [(+) is the approximate IC₅₀]

[2] = system: P-388 (mouse DBA/2 lymphoid neoplasm); assay: General anti-tumour assay, P-388; format: cell-based
Protocol: as §1, §2

[3] = system: A-549 (human lung carcinoma); assay: General anti-tumour assay, A-549; format: cell-based
Protocol: as §1, §2

[4] = system: CV-1 (monkey kidney fibroblast); assay: Cytotoxicity assay, CV-1; format: cell-based
Protocol: as §1, §2

[5] = system: VSV (Vesicular Stomatitis Virus); assay: microbe, parasite or virus in culture; format: cell-based; conditions: BHK, read-out: IC50 µg/ml approx
[6] = system: HT-29 (human colon carcinoma); assay: General anti-tumour assay, HT-29; format: cell-based
Protocol: as §1, §2

[7] = system: MCF-7 (human breast carcinoma); assay: General anti-tumour assay, MCF-7; format: cell-based
Protocol: as §1, §2

[8] = system: HSV-1 (herpes simplex virus, type 1); assay: General anti-viral assay, HSV-1 in CV-1 cells (plaque reduction); format: cell-based; conditions: Human alphaherpesvirus 1; CV-1/ HSV-1; read-out: IC50 µg/ml approx

## CC(C)=CC1CC(C)C2CCC(C)c3c4c(c(C)c1c32)OCO4 (stereo not drawn) [AH-5, Helioporin E]
[1]; Mesocricetus auratus, read-out: IC50 µg/ml approx
  IC50: ~5 µg/mL (≈ 16 µM)
[1]; TEST CONC (µg) 0.2
  activity (cell inhibition): - ((-) no activity - the number of cells is equal to the control of growth, 0-40% cell inhibition)
[1]; TEST CONC (µg) 0.5
  activity (cell inhibition): - ((-) no activity - the number of cells is equal to the control of growth, 0-40% cell inhibition)
[1]; TEST CONC (µg) 1
  activity (cell inhibition): - ((-) no activity - the number of cells is equal to the control of growth, 0-40% cell inhibition)
[1]; TEST CONC (µg) 2
  activity (cell inhibition): - ((-) no activity - the number of cells is equal to the control of growth, 0-40% cell inhibition)
[1]; TEST CONC (µg) 5
  activity (cell inhibition): + ((+) low activity - numbers of cells are reduced by approx 50-60%)
[1]; TEST CONC (µg) 10
  activity (cell inhibition): +++ ((+++) very good activity - there is 100% cell inhibition)
[1]; TEST CONC (µg) 20
  activity (cell inhibition): +++ ((+++) very good activity - there is 100% cell inhibition)
[2]; Mus musculus, P388, P-388, read-out: IC50 µg/ml approx
  IC50: 5 to 10 µg/mL (≈ 16 to 32 µM)
[2]; P-388, TEST CONC (µg) 0.2
  activity (cell inhibition): - ((-) no activity - the number of cells is equal to the control of growth, 0-40% cell inhibition)
[2]; P-388, TEST CONC (µg) 0.5
  activity (cell inhibition): - ((-) no activity - the number of cells is equal to the control of growth, 0-40% cell inhibition)
[2]; P-388, TEST CONC (µg) 1
  activity (cell inhibition): - ((-) no activity - the number of cells is equal to the control of growth, 0-40% cell inhibition)
[2]; P-388, TEST CONC (µg) 2
  activity (cell inhibition): - ((-) no activity - the number of cells is equal to the control of growth, 0-40% cell inhibition)
[2]; P-388, TEST CONC (µg) 5
  activity (cell inhibition): - ((-) no activity - the number of cells is equal to the control of growth, 0-40% cell inhibition)
[2]; P-388, TEST CONC (µg) 10
  activity (cell inhibition): ++ ((++) good activity - numbers of cells are reduced by approx 70-90%)
[2]; P-388, TEST CONC (µg) 20
  activity (cell inhibition): ++ ((++) good activity - numbers of cells are reduced by approx 70-90%)
[3]; A-549, TEST CONC (µg) 0.2
  activity (cell inhibition): - ((-) no activity - the number of cells is equal to the control of growth, 0-40% cell inhibition)
[3]; A-549, TEST CONC (µg) 0.5
  activity (cell inhibition): - ((-) no activity - the number of cells is equal to the control of growth, 0-40% cell inhibition)
[3]; A-549, TEST CONC (µg) 1
  activity (cell inhibition): - ((-) no activity - the number of cells is equal to the control of growth, 0-40% cell inhibition)
[3]; A-549, TEST CONC (µg) 2
  activity (cell inhibition): - ((-) no activity - the number of cells is equal to the control of growth, 0-40% cell inhibition)
[3]; A-549, TEST CONC (µg) 5
  activity (cell inhibition): - ((-) no activity - the number of cells is equal to the control of growth, 0-40% cell inhibition)
[3]; A-549, TEST CONC (µg) 10
  activity (cell inhibition): - ((-) no activity - the number of cells is equal to the control of growth, 0-40% cell inhibition)
[3]; A-549, TEST CONC (µg) 20
  activity (cell inhibition): - ((-) no activity - the number of cells is equal to the control of growth, 0-40% cell inhibition)
[3]; Homo sapiens, A549, A-549, read-out: IC50 µg/ml approx
  IC50: > 20 µg/mL
BHK cells
  cytotoxicity (inhibition zone on the cell sheet): 0-
[4]; CV-1, TEST CONC (µg) 0.2
  activity (cell inhibition): - ((-) no activity - the number of cells is equal to the control of growth, 0-40% cell inhibition)
[4]; CV-1, TEST CONC (µg) 0.5
  activity (cell inhibition): - ((-) no activity - the number of cells is equal to the control of growth, 0-40% cell inhibition)
[4]; CV-1, TEST CONC (µg) 1
  activity (cell inhibition): - ((-) no activity - the number of cells is equal to the control of growth, 0-40% cell inhibition)
[4]; CV-1, TEST CONC (µg) 2
  activity (cell inhibition): - ((-) no activity - the number of cells is equal to the control of growth, 0-40% cell inhibition)
[4]; CV-1, TEST CONC (µg) 5
  activity (cell inhibition): - ((-) no activity - the number of cells is equal to the control of growth, 0-40% cell inhibition)
[4]; CV-1, TEST CONC (µg) 10
  activity (cell inhibition): - ((-) no activity - the number of cells is equal to the control of growth, 0-40% cell inhibition)
[4]; CV-1, TEST CONC (µg) 20
  activity (cell inhibition): ++ ((++) good activity - numbers of cells are reduced by approx 70-90%)
[4]; Primates, CV-1, read-out: IC50 µg/ml approx
  IC50: 10 to 20 µg/mL (≈ 32 to 64 µM)
[5]
  IC50: > 40 µg/mL
[6]; HT-29, TEST CONC (µg) 0.2
  activity (cell inhibition): - ((-) no activity - the number of cells is equal to the control of growth, 0-40% cell inhibition)
[6]; HT-29, TEST CONC (µg) 0.5
  activity (cell inhibition): - ((-) no activity - the number of cells is equal to the control of growth, 0-40% cell inhibition)
[6]; HT-29, TEST CONC (µg) 1
  activity (cell inhibition): - ((-) no activity - the number of cells is equal to the control of growth, 0-40% cell inhibition)
[6]; HT-29, TEST CONC (µg) 2
  activity (cell inhibition): - ((-) no activity - the number of cells is equal to the control of growth, 0-40% cell inhibition)
[6]; HT-29, TEST CONC (µg) 5
  activity (cell inhibition): + ((+) low activity - numbers of cells are reduced by approx 50-60%)
[6]; HT-29, TEST CONC (µg) 10
  activity (cell inhibition): ++ ((++) good activity - numbers of cells are reduced by approx 70-90%)
[6]; HT-29, TEST CONC (µg) 20
  activity (cell inhibition): +++ ((+++) very good activity - there is 100% cell inhibition)
[6]; Homo sapiens, HT-29, read-out: IC50 µg/ml approx
  IC50: ~5 µg/mL (≈ 16 µM)
[7]; Homo sapiens, MCF7, MCF-7, read-out: IC50 µg/ml approx
  IC50: ~10 µg/mL (≈ 32 µM)
[7]; MCF-7, TEST CONC (µg) 0.2
  activity (cell inhibition): - ((-) no activity - the number of cells is equal to the control of growth, 0-40% cell inhibition)
[7]; MCF-7, TEST CONC (µg) 0.5
  activity (cell inhibition): - ((-) no activity - the number of cells is equal to the control of growth, 0-40% cell inhibition)
[7]; MCF-7, TEST CONC (µg) 1
  activity (cell inhibition): - ((-) no activity - the number of cells is equal to the control of growth, 0-40% cell inhibition)
[7]; MCF-7, TEST CONC (µg) 2
  activity (cell inhibition): - ((-) no activity - the number of cells is equal to the control of growth, 0-40% cell inhibition)
[7]; MCF-7, TEST CONC (µg) 5
  activity (cell inhibition): - ((-) no activity - the number of cells is equal to the control of growth, 0-40% cell inhibition)
[7]; MCF-7, TEST CONC (µg) 10
  activity (cell inhibition): + ((+) low activity - numbers of cells are reduced by approx 50-60%)
[7]; MCF-7, TEST CONC (µg) 20
  activity (cell inhibition): +++ ((+++) very good activity - there is 100% cell inhibition)
[8]
  IC50: > 40 µg/mL
